From patent US6348447B1, “Pharmaceutical composition for the treatment of functional dyspepsia and/or irritable bowel syndrome and new use of substances therein” (priority 1998, dated 2002)
“Also recorded” adds a separate entry of the source.

Key:
gastric emptying = conditions: in man; cited from earlier work
pancreatic secretion = conditions: in vivo; cited from earlier work
[1] = tested on: gastric emptying and small intestinal motility; assay: Gastric emptying and small intestinal motility in the rat; format: in vivo
[2] = tested on: small bowel motility in humans with IBS; assay: Small bowel manometry in fasted IBS patients during intravenous GLP-1 infusion; format: in vivo, human; conditions: for Contraction frequency / Contraction amplitude / Contraction area / Motility index Ln (Sum (mm Hg*s)/min): 4 h, fasted IBS patients; for Contraction frequency: angle of Treitz; for Contraction frequency / Contraction amplitude / Contraction area / Motility index Ln (Sum (mm Hg*s)/min) / Adjusted MMC: mean ±SEM n=6; for Adjusted MMC: premature MMC at onset subtracted
Protocol: Experiments were carried out in 12 subjects fulfilling the Rome-criteria for IBS. In the fasted subjects a small bowel manometry tube was passed through the nose and located in antroduodenal region under fluoroscopy. Then, small bowel manometry was recorded for 8 hours in the fasted state, and for an additional 40 min after a meal (320 kcal). During the first 4-hour period of the recording saline was administered intravenously. During the second 4-hour period GLP-1 was given intravenously either at a dose of 1.2 pmol/kg/min (72 pmol/kg/h) (n=6) or 2.5 pmol/kg/min (150 pmol/kg/h) (n=6) with the infusion continued over the 40-minute meal period. GLP-1 was administered as an intravenous infusion at a dose of 1.2 or 2.5 pmol/kg/min. The compound was diluted from a stock solution of GLP-1 (Polypeptide, Wolfenbüttel, Hannover, Germany) 100 nmol/ml prepared according to general guidelines with sterilization filtration and endotoxin test, and divided in 10 ml ampoules.
For each patient the solution for infusion was constituted according to body weight. The dose to be given was multiplied by body weight, resulting in an individual dosing, expressed as pmol/min. The calculated total dose (according to extrapolated 250 ml infusion time) was taken from the stock solution and diluted in 250 ml infusion volume of saline (Natriumklorid 9 mg/ml, Pharmacia & Upjohn, Stockholm, Sweden). The infusion was then given at a rate of 1 ml/min with a constant infusion pump (Volumetric infusion pump, model 960, Imed, Oxon, UK) over 4 hours (240 min).
As this premature MMC cycle was considered to be due to an immediate effect of GLP-1 during a build-up of a steady state concentration in the circulation, an adjusted MMC prevalence during GLP-1 infusion was calculated by subtracting the premature MMC at onset from the remaining MMC observed during infusion of GLP-1.
In detail, the following results were obtained from the motility recordings (reference point: angle of Treitz; values are mean ±SEM of n=6 in each group; statistical evaluation by the non-parametric Wilcoxon signed-rank test): […]

gastric acid secretion = conditions: in man; cited from earlier work
dyspepsia symptoms = conditions: dysmotility-like and gastroesophageal reflux-like dyspepsia; cited from earlier work

Molecule | Slowing of gastric emptying (gastric emptying) [%] | Inhibition of pancreatic secretion (pancreatic secretion) | Action on gastric emptying and small intestinal motility (in words) [1] | Time after onset of infusion to start of an MMC in the duodenum ([2]; GLP-1 1.2 pmol/kg/min i.v.) [min] | Contraction frequency ([2]; GLP-1 1.2 pmol/kg/min i.v.) | Contraction amplitude ([2]; GLP-1 1.2 pmol/kg/min i.v.) [mm Hg] | Contraction area ([2]; GLP-1 1.2 pmol/kg/min i.v.) [mm Hg*s] | Motility index Ln (Sum (mm Hg*s)/min) ([2]; GLP-1 1.2 pmol/kg/min i.v.) | Adjusted MMC ([2]; GLP-1 1.2 pmol/kg/min i.v.) | Time after onset of infusion to start of an MMC in the duodenum ([2]; GLP-1 2.5 pmol/kg/min i.v.) [min] | Contraction frequency ([2]; GLP-1 2.5 pmol/kg/min i.v.) | Contraction amplitude ([2]; GLP-1 2.5 pmol/kg/min i.v.) [mm Hg] | Contraction area ([2]; GLP-1 2.5 pmol/kg/min i.v.) [mm Hg*s] | Motility index Ln (Sum (mm Hg*s)/min) ([2]; GLP-1 2.5 pmol/kg/min i.v.) | Adjusted MMC ([2]; GLP-1 2.5 pmol/kg/min i.v.) | Effect on motor activity in the small bowel (overall result in words) ([2]; IBS patients, fasted state) | Patients in whom a premature MMC was started in the duodenum ([2]; in each group (1.2 and 2.5 pmol/kg/min)) | Inhibition of gastric acid secretion (gastric acid secretion) [%] | Symptomatic relief, share of studied patients (dyspepsia symptoms)
glucagon-like peptide-1 [GLP-1] | 50 | about 45% | profound inhibitory action | ≤ 14.2 ± 3.8 | 1.7 ± 0.4 #/min | 24.7 ± 1.6 | 33.4 ± 3.2 | 4.7 ± 0.3 | 0.0 ± 0.0 #/4 h | ≤ 12.0 ± 2.7 | 0.9 ± 0.2 #/min | 23.6 ± 2.5 | 30.5 ± 5.3 | 3.8 ± 0.8 | 0.2 ± 0.2 #/4 h | able to reduce the motor activity; also recorded: dose-dependent reduction of motor activity | four out of six | 43 | –
COc1cc(N)c(Cl)cc1C(=O)NC1CCN(CCCOc2ccc(F)cc2)CC1OC (stereo not shown) [cisapride] | – | – | – | – | – | – | – | – | – | – | – | – | – | – | – | – | – | – | 60-90%
